Entries after “also recorded” stand apart in the source; their conditions may differ.
System: viral DNA (circularization versus integration into .phi.X174 target DNA)
Experiment: Circularization versus integration (competition) in cytoplasmic extracts from infected cells
Type: biochemical, HIV-1
Experimental: Circularization of the linear viral DNA present in cytoplasmic extracts was competitive with integration into heterologous DNA targets (FIG. 28). In FIG. 28, cytoplasmic extracts from infected cells were incubated at 37° C. as follows: Lane 1; incubation with 10 μg/ml .phi.X174 DNA for 45 minutes, lane 2, incubation with 1 mM ATP for 45 minutes; lane 3, incubation with […] .phi.X174 DNA and 1 mM ATP for 45 minutes; lane 4, incubation with 10 μg/ml .phi.X174 DNA for 45 minutes, followed by incubation with 1 mM ATP for 45 minutes; lane 5, incubation with 1 mM ATP for 45 minutes, followed by incubation with 10 μg/ml .phi.X174 DNA for 45 minutes; lane 6, incubation with nothing added for 45 minutes, followed by incubation with 10 μg/ml .phi.X174 DNA for 45 minutes. In FIG. 29, lanes 1-6, cytoplasmic extracts from infected cells were incubated at 37° C. for 45 minutes in the presence of 1 mM ATP and .phi.X174 DNA at a concentration of 0 μg/ml (lane 1), 0.3 μg/ml (lane 2), 0.8 μg/ml (lane 3), 1.6 μg/ml (lane 4), 3.2 μg/ml (lane 5), or 6.4 μg/ml (lane 6). Lane 7, extract incubated with 6.4 μg/ml .phi.X174 DNA for 45 minutes in the absence of added ATP. In FIG. 30, cytoplasmic extracts from infected cells were incubated at 37° C. for 60 minutes with nothing added (lane 1), with 6.4 μg/ml .phi.X174 DNA and 1 mM ATPγS (lane 2), or with 1 mM […] (lane 3). […]

## Nc1ncnc2c1ncn2[C@@H]1O[C@H](COP(=O)(O)OP(=O)(O)OP(=O)(O)O)[C@@H](O)[C@H]1O [ATP, adenosine triphosphate]
ATP (1 mM) and target DNA together, versus either alone, 45 min
  circular or integrated product: the amount of circular or integrated product produced was reduced
Preincubation with 1 mM ATP for 45 min prior to target DNA
  integration of viral DNA into target DNA: integration of viral DNA into target DNA was prevented; also recorded: unable to integrate during a subsequent incubation with target DNA

Reference: patent US5759768A, “Assays for factors affecting circularization of DNA, assays for factors affecting DNA integration, factors, and uses thereof” (priority 1995, dated 1998)
